Assay results as given in US20070281992A1, “COMBINATION OF GYRASE B INHIBITORS AND PROTEIN SYNTHESIS INHIBITORS AND USES THEREOF” (priority 2006, published 2007).
Where two headings read alike, the source gives them in different places.

Tests used:
[1] = system: Vancomycin-intermediate Staphylococcus epidermidis Isolates; experiment: MIC assay (NCCLS broth dilution), VISE isolates; assay type: cell-based; conditions: Staphylococcus epidermidis; for MIC: read-out: Minimal Inhibitory Concentration
Procedure: (§1) Antibiotics: novobiocin, tetracycline, minocycline, oxacillin, and vancomycin were all purchased from Sigma-Aldrich. Linezolid was obtained from Pfizer, Inc. Novobiocin/tetracycline and novobiocin/minocycline were tested in a 2.5:1 ratio to mimic the serum levels. (Vavra, J. J., 1967, Development of resistance to novobiocin, tetracycline, and novobiocin-tetracycline combinations in Staphylococcus aureus populations, J. Bacteriol 93(3):801). Compounds were tested across a concentration range consisting of 11 two-fold serial dilutions of test agent.
(§2) Stock solutions were prepared in sterile deionized water; novobiocin stock concentration was 1600 μg/mL and all other drugs stock solutions were prepared at 640 μg/mL. The stock solutions were allowed to sit at room temperature for one hour to auto-sterilize prior to use in the test. All compounds were in solution in water. The control agent was vancomycin hydrochloride, Sigma Chemical Lot # 015K0825.
(§3) The test organisms for the assay were 52 MSSA, 52 MRSA, 8 VISA, 7 VISE, and 3 LRSA isolates. Quality control strains included Staphylococcus aureus 0100 (ATCC 29213) and Enterococcus faecalis (ATCC 29212).
(§4) The MIC assay was performed according to published NCCLS guidelines. (National Committee for Clinical Laboratory Standards, Methods for Dilution Antimicrobial Susceptibility Tests for Bacteria that Grow Aerobically; Approved Standard-Sixth Edition, NCCLS Document M7-A6 [ISBN 1-56238-486-4], NCCLS, 940 West Valley Road, Suite 1400, Wayne, Pa. 19087-1898 USA, 2003). The test medium was Mueller Hinton II Broth for all organisms.

[2] = system: Methicillin-Susceptible Staphylococcus aureus Isolates; experiment: MIC assay (NCCLS broth dilution), MSSA clinical isolates; assay type: cell-based
Procedure: as §1, §2, §3, §4

[3] = Staphylococcus aureus, 52 MSSA isolates, combinations at 2.5:1, given as NB/partner

`CO[C@@H]1[C@@H](OC(N)=O)[C@@H](O)[C@H](Oc2ccc3c(O)c(NC(=O)c4ccc(O)c(CC=C(C)C)c4)c(=O)oc3c2C)OC1(C)C` [NB, novobiocin] was tested, and the MIC ([1]; VISE isolate 2020, 09MAR06) was 0.08 µg/mL, the MIC ([1]; VISE isolate 2021, 09MAR06) was ≤ 0.04 µg/mL and the MIC ([1]; VISE isolate 2022, 03MAR06) was ≤ 0.04 µg/mL. The MIC ([1]; VISE isolate 2023, 03MAR06) was < 0.04 µg/mL, the MIC50 ([1]; 4 VISE isolates, combinations at 2.5:1) was ≤ 0.04 µg/mL and the “MIC Range” value ([2]; 52 MSSA isolates, Mueller Hinton II Broth, combinations at 2.5:1, given as NB/partner) was “.08 to 10 µg/mL”. For the same molecule, the MIC ([2]; Staphylococcus aureus, MSSA isolate 133, 03MAR06, read-out: Minimal Inhibitory Concentration) was 0.15 µg/mL, the MIC ([2]; Staphylococcus aureus, MSSA isolate 134, 03MAR06, read-out: Minimal Inhibitory Concentration) was 0.08 µg/mL and the MIC ([2]; Staphylococcus aureus, MSSA isolate 135, 03MAR06, read-out: Minimal Inhibitory Concentration) was 0.31 µg/mL. The MIC ([2]; Staphylococcus aureus, MSSA isolate 753, 22FEB06, read-out: Minimal Inhibitory Concentration) was 0.31 µg/mL, the MIC ([2]; Staphylococcus aureus, MSSA isolate 754, 22FEB06, read-out: Minimal Inhibitory Concentration) was 0.31 µg/mL and the MIC ([2]; Staphylococcus aureus, MSSA isolate 754, 24FEB06, read-out: Minimal Inhibitory Concentration) was 0.31 µg/mL. The MIC ([2]; Staphylococcus aureus, MSSA isolate 755, 22FEB06, read-out: Minimal Inhibitory Concentration) was 0.31 µg/mL, the MIC ([2]; Staphylococcus aureus, MSSA isolate 756, 03MAR06, read-out: Minimal Inhibitory Concentration) was 0.15 µg/mL and the MIC ([2]; Staphylococcus aureus, MSSA isolate 779, 22FEB06, read-out: Minimal Inhibitory Concentration) was 0.31 µg/mL. It also gave an MIC ([2]; Staphylococcus aureus, MSSA isolate 780, 03MAR06, read-out: Minimal Inhibitory Concentration) of 0.31 µg/mL, an MIC ([2]; Staphylococcus aureus, MSSA isolate 781, 03MAR06, read-out: Minimal Inhibitory Concentration) of 0.15 µg/mL and an MIC ([2]; Staphylococcus aureus, MSSA isolate 782, 22FEB06, read-out: Minimal Inhibitory Concentration) of 0.15 µg/mL. For the same molecule, the MIC ([2]; Staphylococcus aureus, MSSA isolate 783, 22FEB06, read-out: Minimal Inhibitory Concentration) was 0.31 µg/mL, the MIC ([2]; Staphylococcus aureus, MSSA isolate 784, 22FEB06, read-out: Minimal Inhibitory Concentration) was 0.31 µg/mL and the MIC ([2]; Staphylococcus aureus, MSSA isolate 785, 22FEB06, read-out: Minimal Inhibitory Concentration) was 0.15 µg/mL. It also gave an MIC ([2]; Staphylococcus aureus, MSSA isolate 786, 22FEB06, read-out: Minimal Inhibitory Concentration) of 0.15 µg/mL, an MIC ([2]; Staphylococcus aureus, MSSA isolate 787, 22FEB06, read-out: Minimal Inhibitory Concentration) of 0.15 µg/mL and an MIC ([2]; Staphylococcus aureus, MSSA isolate 788, 22FEB06, read-out: Minimal Inhibitory Concentration) of 0.15 µg/mL. The MIC ([2]; Staphylococcus aureus, MSSA isolate 789, 24FEB06, read-out: Minimal Inhibitory Concentration) was 0.31 µg/mL, the MIC ([2]; Staphylococcus aureus, MSSA isolate 790, 24FEB06, read-out: Minimal Inhibitory Concentration) was 0.31 µg/mL and the MIC ([2]; Staphylococcus aureus, MSSA isolate 791, 24FEB06, read-out: Minimal Inhibitory Concentration) was 0.15 µg/mL. For the same molecule, the MIC ([2]; Staphylococcus aureus, MSSA isolate 792, 03MAR06, read-out: Minimal Inhibitory Concentration) was 0.15 µg/mL, the MIC ([2]; Staphylococcus aureus, MSSA isolate 793, 24FEB06, read-out: Minimal Inhibitory Concentration) was 0.31 µg/mL and the MIC ([2]; Staphylococcus aureus, MSSA isolate 794, 24FEB06, read-out: Minimal Inhibitory Concentration) was 0.31 µg/mL. The MIC ([2]; Staphylococcus aureus, MSSA isolate 994, 22FEB06, read-out: Minimal Inhibitory Concentration) was 0.15 µg/mL, the MIC ([2]; Staphylococcus aureus, MSSA isolate 995, 03MAR06, read-out: Minimal Inhibitory Concentration) was 0.31 µg/mL and the MIC ([2]; Staphylococcus aureus, MSSA isolate 996, 22FEB06, read-out: Minimal Inhibitory Concentration) was 0.31 µg/mL. It also gave an MIC ([2]; Staphylococcus aureus, MSSA isolate 997, 22FEB06, read-out: Minimal Inhibitory Concentration) of 0.31 µg/mL, an MIC ([2]; Staphylococcus aureus, MSSA isolate 998, 03MAR06, read-out: Minimal Inhibitory Concentration) of 0.31 µg/mL and an MIC ([2]; Staphylococcus aureus, MSSA isolate 999, 22FEB06, read-out: Minimal Inhibitory Concentration) of 0.15 µg/mL. The MIC ([2]; Staphylococcus aureus, MSSA isolate 1000, 24FEB06, read-out: Minimal Inhibitory Concentration) was 0.15 µg/mL, the MIC ([2]; Staphylococcus aureus, MSSA isolate 1001, 24FEB06, read-out: Minimal Inhibitory Concentration) was 0.31 µg/mL and the MIC ([2]; Staphylococcus aureus, MSSA isolate 1002, 24FEB06, read-out: Minimal Inhibitory Concentration) was 0.15 µg/mL. The MIC ([2]; Staphylococcus aureus, MSSA isolate 1003, 03MAR06, read-out: Minimal Inhibitory Concentration) was 0.08 µg/mL, the MIC ([2]; Staphylococcus aureus, MSSA isolate 1005, 24FEB06, read-out: Minimal Inhibitory Concentration) was 0.08 µg/mL and the MIC ([2]; Staphylococcus aureus, MSSA isolate 1006, 24FEB06, read-out: Minimal Inhibitory Concentration) was 0.31 µg/mL. It also gave an MIC ([2]; Staphylococcus aureus, MSSA isolate 1007, 24FEB06, read-out: Minimal Inhibitory Concentration) of 0.31 µg/mL, an MIC ([2]; Staphylococcus aureus, MSSA isolate 1008, 24FEB06, read-out: Minimal Inhibitory Concentration) of 0.625 µg/mL and an MIC ([2]; Staphylococcus aureus, MSSA isolate 1009, 24FEB06, read-out: Minimal Inhibitory Concentration) of 0.15 µg/mL. It also gave an MIC ([2]; Staphylococcus aureus, MSSA isolate 1131, 24FEB06, read-out: Minimal Inhibitory Concentration) of 0.15 µg/mL, an MIC ([2]; Staphylococcus aureus, MSSA isolate 1132, 03MAR06, read-out: Minimal Inhibitory Concentration) of 0.15 µg/mL and an MIC ([2]; Staphylococcus aureus, MSSA isolate 1133, 24FEB06, read-out: Minimal Inhibitory Concentration) of 0.15 µg/mL. For the same molecule, the MIC ([2]; Staphylococcus aureus, MSSA isolate 1134, 24FEB06, read-out: Minimal Inhibitory Concentration) was 0.31 µg/mL, the MIC ([2]; Staphylococcus aureus, MSSA isolate 1654, 03MAR06, read-out: Minimal Inhibitory Concentration) was 0.31 µg/mL and the MIC ([2]; Staphylococcus aureus, MSSA isolate 1656, 03MAR06, read-out: Minimal Inhibitory Concentration) was 0.15 µg/mL. The MIC ([2]; Staphylococcus aureus, MSSA isolate 1662, 03MAR06, read-out: Minimal Inhibitory Concentration) was 0.15 µg/mL, the MIC ([2]; Staphylococcus aureus, MSSA isolate 1663, 03MAR06, read-out: Minimal Inhibitory Concentration) was 0.15 µg/mL and the MIC ([2]; Staphylococcus aureus, MSSA isolate 1666, 03MAR06, read-out: Minimal Inhibitory Concentration) was 0.31 µg/mL. For the same molecule, the MIC ([2]; Staphylococcus aureus, MSSA isolate 1667, 03MAR06, read-out: Minimal Inhibitory Concentration) was 0.15 µg/mL, the MIC ([2]; Staphylococcus aureus, MSSA isolate 1668, 03MAR06, read-out: Minimal Inhibitory Concentration) was 0.15 µg/mL and the MIC ([2]; Staphylococcus aureus, MSSA isolate 1671, 03MAR06, read-out: Minimal Inhibitory Concentration) was 0.15 µg/mL. The MIC ([2]; Staphylococcus aureus, MSSA isolate 1728, 03MAR06, read-out: Minimal Inhibitory Concentration) was 10 µg/mL, the MIC ([2]; Staphylococcus aureus, MSSA isolate 1728, retest 09MAR06, read-out: Minimal Inhibitory Concentration) was 10 µg/mL and the MIC ([2]; Staphylococcus aureus, MSSA isolate #1728 (novobiocin-resistant), read-out: MIC) was 10 µg/mL. The MIC50 [2, 3] was 0.15 µg/mL, the MIC90 [2, 3] was 0.312 µg/mL and the MIC Range ([2]; the other 51 MSSA isolates (without #1728)) was 0.08 to 0.62 µg/mL.
